Reference: patent US4863949A, “Aminopropanol derivatives, processes for the preparation thereof, the use thereof and pharmaceutical compositions containing them” (Boehringer Mannheim GmbH, priority 1985, dated 1989)
Where a name gives a salt, the structure may show the parent alone.

System: livers
Test: denitration rate in perfused rat livers relative to isosorbide-5-mononitrate (nitrate-like action)
Design: species or system rats
Details: rat livers perfused 4 min, equimolar 5×10^-5 M/l; freed NO2 in perfusate; high = fast denitration

| SMILES | Vrel (denitration rate in relation to isosorbide-5-mononitrate) |
| --- | --- |
| CC(=O)Oc1c(C)cc(OCC(O)CNC(C)(C)CNC(=O)CCCO[N+](=O)[O-])c(C)c1C.O=C(O)/C=C/C(=O)O (stereo not shown) [8 (15.), 3-[1,1-dimethyl-2-(4-nitroxybutanoylamino)-ethylamino]-1-(4-methylcarbonyloxy-2,3,5-trimethylphenoxy)-propan-2-ol fumarate] | 1,19 |
| CC(C)(CNC(=O)CCCO[N+](=O)[O-])NCC(O)COc1ccccc1C#N.O=C(O)/C=C/C(=O)O (stereo not shown) [2 (48.), 1-(2-cyanophenoxy)-3-[1,1-dimethyl-2-(4-nitroxybutanoylamino)-ethylamino]-propan-2-ol fumarate] | 0,94 |
| O=C(CCCO[N+](=O)[O-])NCCNCC(O)COc1cccc2[nH]ccc12 (stereo not shown) [2 (11.), 1-indol-4-yloxy)-3-[2-(4-nitroxybutanoylamino)-ethylamino]-propan-2-ol hemifumarate] | 0,95 |
| O=[N+]([O-])O[C@@H]1CO[C@H]2[C@@H]1OC[C@@H]2O [Isosorbide-5-mononitrate, isosorbide-5-mononitrate, reference compound] | 0,86 |
| CC(CCC(=O)NCCNCC(O)COc1cccc2c1CC(=O)N2)O[N+](=O)[O-] (stereo not shown) [2 (29.), 3-[2-(4-nitroxypentanoylamino)-ethylamino]-1-(2-oxoindolin-4-yloxy)-propan-2-ol cyclamate] | 0,86 |
| Cc1ccc(Cl)c(OCC(O)CNC(C)(C)CNC(=O)CCCO[N+](=O)[O-])c1 (stereo not shown) [2 (46.), 1-(2-chloro-5-methylphenoxy)-3-[1,1-dimethyl-2-(4-nitroxybutanoylamino)-ethylamino]-propan-2-ol cyclamate] | 0,97 |
| O=C(CCCO[N+](=O)[O-])NCCNCC(O)COc1cccc2c1CC(=O)N2.O=C(O)/C=C/C(=O)O (stereo not shown) [2 (17.), 3-[2-(4-nitroxybutanoylamino)-ethylamino]-1-(2-oxoindolin-4-yloxy)-propan-2-ol fumarate] | 0,75 |
| Cn1cnc2cccc(OCC(O)CNC(C)(C)CNC(=O)O[C@H]3CO[C@H]4[C@@H]3OC[C@H]4O[N+](=O)[O-])c21 (stereo partly shown) [Example 11, 3-[1,1-Dimethyl-2-[(5-O-nitroisosorbid-2-yloxy)-carbonylamino]-ethylamino]-1-(3-methylbenzimidazol-4-yloxy)-propan-2-ol fumarate] | 1,23 |
| C=CCc1ccccc1OCC(O)CNC(C)(C)CNC(=O)CCCO[N+](=O)[O-] (stereo not shown) [2 (72.), 1-(2-allylphenoxy)-3-[1,1-dimethyl-2-(4-nitroxybutanoylamino)-ethylamino]-propan-2-ol cyclamate] | 0,54 |
| O=C(CCCCO[N+](=O)[O-])NCCNCC(O)COc1cccc2c1CC(=O)N2 (stereo not shown) [2 (31.), 3-[2-(5-nitroxypentanoylamino)-ethylamino]-1-(2-oxoindolin-4-yloxy)-propan-2-ol hemifumarate] | 0,66 |
